Reference: the NIST ThermoML archive (doi:10.1016/j.jct.2008.10.008)
Numbers after ± are expanded uncertainties.

How the values were obtained:
[1] = molar heat capacity at saturation pressure
[2] = Molar enthalpy of transition or fusion; settings: Crystal
[3] = Crystal; Adiabatic calorimetry

CC(C)(C)c1ccccc1 [(1,1-dimethylethyl)benzene]
molar heat capacity [J/K/mol], [1]
Settings	Crystal	Liquid
5 K	0.72 ± 0.02	–
5.009 K	0.72 ± 0.02	–
5.752 K	1.09 ± 0.02	–
6.678 K	1.68 ± 0.02	–
7.653 K	2.44 ± 0.02	–
8.667 K	3.35 ± 0.02	–
9.709 K	4.46 ± 0.03	–
10 K	4.79 ± 0.03	–
10.84 K	5.76 ± 0.03	–
12.09 K	7.28 ± 0.04	–
13.47 K	9.104 ± 0.05	–
14.96 K	11.15 ± 0.05	–
16.6 K	13.48 ± 0.06	–
18.41 K	16.04 ± 0.06	–
20 K	18.27 ± 0.06	–
20.41 K	18.84 ± 0.07	–
22.63 K	21.93 ± 0.07	–
25.1 K	25.19 ± 0.07	–
27.86 K	28.67 ± 0.07	–
30 K	31.19 ± 0.06	–
30.93 K	32.24 ± 0.06	–
34.35 K	35.9 ± 0.06	–
38.17 K	39.64 ± 0.07	–
40 K	41.3 ± 0.07	–
42.44 K	43.41 ± 0.07	–
47.2 K	47.28 ± 0.07	–
50 K	49.43 ± 0.07	–
52.43 K	51.23 ± 0.07	–
53.45 K	51.95 ± 0.07	–
58.21 K	55.36 ± 0.07	–
58.43 K	55.52 ± 0.07	–
60 K	56.6 ± 0.07	–
64.04 K	59.39 ± 0.083	–
70 K	63.57 ± 0.083	–
70.32 K	63.81 ± 0.083	–
77.32 K	68.59 ± 0.091	–
80 K	70.45 ± 0.091	–
84.98 K	73.93 ± 0.091	–
87.08 K	75.43 ± 0.1	–
90 K	77.44 ± 0.14	–
93.34 K	79.79 ± 0.14	–
93.37 K	79.85 ± 0.14	–
100 K	84.51 ± 0.14	–
101.27 K	85.43 ± 0.14	–
102.4 K	86.21 ± 0.14	–
110.41 K	91.89 ± 0.15	–
111.86 K	92.92 ± 0.15	–
120 K	98.68 ± 0.15	–
120.01 K	98.72 ± 0.15	–
129.8 K	105.69 ± 0.15	–
139.62 K	112.79 ± 0.16	–
140 K	113.02 ± 0.16	–
149.52 K	119.99 ± 0.16	–
160 K	127.65 ± 0.17	–
160.53 K	128.13 ± 0.17	–
162.39 K	129.37 ± 0.17	–
172.82 K	137.16 ± 0.17	–
173.48 K	137.69 ± 0.17	–
180 K	142.42 ± 0.17	–
185.83 K	147.07 ± 0.17	–
186.21 K	147.43 ± 0.17	–
197.14 K	156.12 ± 0.18	–
200 K	157.51 ± 0.18	–
203.2 K	162.61 ± 0.18	–
206.78 K	167.05 ± 0.18	–
215.31 K	169.1 ± 0.18	208.01 ± 0.21
220 K	–	209.58 ± 0.21
223.09 K	–	210.65 ± 0.21
223.25 K	–	210.68 ± 0.21
232.46 K	–	213.79 ± 0.21
232.58 K	–	213.79 ± 0.21
240 K	–	216.6 ± 0.21
240.86 K	–	216.97 ± 0.21
253.04 K	–	221.76 ± 0.21
260 K	–	224.65 ± 0.22
265.37 K	–	226.92 ± 0.22
277.79 K	–	232.27 ± 0.22
280 K	–	233.26 ± 0.22
291.32 K	–	238.42 ± 0.22
294.64 K	–	239.95 ± 0.22
298.15 K	–	241.59 ± 0.22
300 K	–	242.45 ± 0.22
305.81 K	–	245.17 ± 0.22
311.47 K	–	247.82 ± 0.22
320 K	–	251.92 ± 0.22
329.17 K	–	256.4 ± 0.22
330 K	–	256.8 ± 0.23
340 K	–	261.71 ± 0.23
347.61 K	–	265.47 ± 0.23
360 K	–	271.66 ± 0.23
365.98 K	–	274.65 ± 0.24
380 K	–	281.68 ± 0.24
384.21 K	–	283.78 ± 0.24
400 K	–	291.7 ± 0.25
402.17 K	–	292.78 ± 0.25
419.78 K	–	301.62 ± 0.25
420 K	–	301.72 ± 0.25
435.18 K	–	309.12 ± 0.26
440 K	–	311.52 ± 0.26

Settings	Molar enthalpy of transition or fusion [kJ/mol]	Triple point temperature [K]
[2]	8.394 ± 0.006	–
[3]	–	215.31 ± 0.04
